Drawing on patent US11440904B2, “Substituted pyrimidines, pharmaceutical compositions and therapeutic methods thereof” (priority 2017, dated 2022), this text covers IC50 and EC50 for five compounds.

The term IC50 denotes the concentration that inhibits the measured activity by half.

One assay relates to MDA-MB-231 cells. The assay can be described thus: Cancer cell growth inhibition, MDA-MB-231. The class given is cell-based. As to conditions: Homo sapiens, 72 hr, cell viability. As for the experimental part: (§1) In order to test certain compounds of Compounds 1 to 24 for cancer cell growth inhibition, a leukemia cancer cell line EOL-1, and triple negative breast cancer cell line MDA-MB-231 was used.
(§2) EOL-1 and MDA-MB-231 cells were cultured in a RPMI-1640 cell culture medium supplemented with 10% fetal bovine serum (FBS) and 1% penicillin/streptomycin (Gibco BRL).
(§3) The cancer cell lines stored in a liquid nitrogen tank were each quickly thawed at 37° C. water bath, and centrifuged to remove the DMSO in the freezing medium. The resulting cell pellet was mixed with a culture medium, incubated in a culture flask at 37° C. under 5% CO2 for 2 to 3 days. The EOL-1 cells were sub-cultured by 1:5˜10 dilution in fresh culture medium. For MD-MB-231 cells, the culture medium was removed and the remaining cells were washed with PBS (Phosphate Buffered Saline) and trypsinized by trypsin-EDTA. The detached cells were sub-cultured by 1:5˜10 dilution in fresh culture medium.
(§4) For the cell growth inhibition assay, the cells were seeded in 96-well cell culture plates at 5×10^4 cells/well for EOL-1 and 5×10^3 cells/well for MDA-MB-231 cells in 50 μL and incubated at 37° C. under 5% CO2 for 3 to 6 hr. before the compounds were added.
(§5) Certain compounds of Compounds 1-24 were dissolved in dimethylsulfoxide (DMSO) to a concentration of 10 mM. The DMSO solution containing test compound was diluted with a culture medium to a final concentration of 600 μM, and then diluted 100 times to 6 μM as top dose followed by 1:3 serial dilutions, and then add 50 μL diluted compounds to the 50 μL cells, with a final top dose at 3 μM and the plate was incubated at 37° C. under 5% CO2 for 72 hr. The cell viability was determined by Cell Meter™ Fluorimetric Cell Cytotoxicity Assay Kit (AAT Bioquest) according to the manufacturer's instructions. Briefly, thaw and warm up the Assay Solution (Component A) to 37° C., and mix it thoroughly. Add 20 μL/well (96-well plate) of Assay Solution (Component A). Mix the reagents by shaking the plate gently for 30 seconds. Incubate the cells in a 37° C., 5% CO2 incubator for 1-24 hr., protected from light. Monitor the fluorescence intensity (bottom read) at Ex/Em=540/590 nm. Alternatively, read the O.D. at 570 nm (the reference wavelength should be 600 nm) to determine the cell viability in each well.

A further assay has as its target FAK (Homo sapiens (Human), UniProt Q05397). The assay is described as follows: 33P ATP HotSpot kinase assay, FAK. As to conditions: read-out: IC50 FAK, 10 μM ATP.
For another assay, the target named is BTK wt (Homo sapiens (Human), UniProt Q06187). The assay is described as follows: 33P ATP HotSpot kinase assay, BTK wt. The class given is biochemical. Particulars: 10 μM ATP. From the text:
(§6) (See, e.g., Ma, et al, 2008 Expert Opin Drug Discov. 3(6): 607-621.)

For a further assay, the target named is EGFR wt (Homo sapiens (Human), UniProt P00533). The assay can be described thus: 33P ATP HotSpot kinase assay, EGFR wt. The class given is biochemical. As to conditions: 10 μM ATP.
Another assay concerns EOL-1 cells. The assay is described as follows: Cancer cell growth inhibition, EOL-1. The class given is cell-based. Particulars: Homo sapiens, EOL1, 72 hr, cell viability. As to the method:
as §1, §2, §3, §4, §5

The target of assay [1] is FAK phosphorylation at tyrosine 397 (Homo sapiens (Human), UniProt Q05397). The assay can be described thus: Cell-based FAK(Y397) phosphorylation ELISA in PC3 cells. Particulars: 1 hr treatment, read-out: EC50 phospho-FAK(Y397). Background: In an ELISA, binding on a coated surface is turned into a signal by an enzyme label.
Procedure: After aspirating the supernatant, 100 μL of RIPA lysis buffer (50 mM Tris-HCl, 1 mM EDTA, 1% NP-40, 0.5% sodium deoxycholate, and 0.1% SDS, pH 7.4, 150 mM NaCl, 1 mM Na3VO4) was added to the cell pellet to lyse the cells on ice for 30 min. After spin at 12,000 rpm for 5 min., 90 μL of the cell lysate was transferred to a fresh tube.
For an enzyme-linked immunosorbent assay (ELISA) assay, 10 μL of the lysate was used for p-FAK(Y397) elisa assay. ELISA was done using the FAK [pY397] Phospho-ELISA Kit (ThermoFisher Scientific, KHO0441) according to the manufacturer's instructions. […] During the first incubation, 50 μL standards of known p-FAK (Y397) content and compound treated samples (10 μL lysate) plus 40 μL diluent buffer were pipetted into the wells and let the p-FAK antigen standards and samples bind to the immobilized (capture) antibody on the plate, a rabbit antibody specific for p-FAK (Y397) 50 μL/well was added to the wells, this antibody serves as a detection antibody by binding to the p-FAK protein during a 3 hr. incubation at room temperature. After washing 4 times, a horseradish peroxidase labeled anti-rabbit IgG was added. This binds to the detection antibody. After a 30 min. incubation and washing to remove all the unbound enzyme, a substrate solution (TMB) was added, which was acted upon by the bound enzyme to produce color.
Assay [2] addresses BTK phosphorylation at tyrosine 223 (Homo sapiens (Human), UniProt Q06187). The assay can be described thus: Immunoblot analysis of phospho-BTK(Y223) in Ramos cells. The class given is cell-based. Particulars: 1 hr treatment, anti-IgM stimulation, western blot. As for the experimental part: Ramos cells were cultured in RPMI-1640 medium with 10% fetal bovine serum (FBS) and 1% penicillin/streptomycin (Gibco BRL). Before the assay, Ramos cells were counted and seeded at 1×10^6 cells/mL, cultured overnight in RPMI-1640 medium with 10% FBS, the cells were centrifuged at 950 rpm for 10 min., then 1˜2×10^6 cells were split into each tube in 300 μL medium. The cells were treated with certain compounds of Compound 1-24 at 0˜3 μM for 1 hr. in 37° C., then the cells were stimulated with 10 μg/mL of anti-IgM (BioLegend) for 5 min., followed by 3 min. spin at 2000 rpm. After aspirating the supernatant, 60 μL of RIPA lysis buffer (50 mM Tris-HCl, 1 mM EDTA, 1% NP-40, 0.5% sodium deoxycholate, and 0.1% SDS, pH 7.4, 150 mM NaCl, 1 mM Na3VO4) was added to the cell pellet to lyse the cells on ice for 30 min. After spin at 10,000 rpm for 5 min., 60 μL of the cell lysate was transferred to a fresh tube, and 20 μL of 4× LDS buffer was added to the tube. The samples were boiled on a 100° C. heat block for 10 min. 25 μL lysate was loaded on to SDS-PAGE gel (NuPAGE™ Novex™ 4-12% Bis-Tris Midi Protein Gels, cat. no. WG1402BOX, ThermoFisher) for western blotting analysis per the manufacturer's instructions. Antibodies used for immunoblot analysis include Btk and p-Btk(Y223) (cat. no. 3553 and 5082; Cell Signaling Technology, Beverly, Mass.). p-Btk(Y223) (cat. no. GTX61791; GeneTex, Inc., Irvine, Calif.). Membranes were detected using infrared fluorescence dye (IRDye® 800CW Donkey anti-Rabbit IgG (H+L), cat. no. P/N 925-32213; IRDye® 680RD Donkey anti-Mouse IgG (H+L), cat. no. P/N 925-68072 and scanned on a LiCor Odyssey scanner (LiCor Biosciences, Lincoln, Nebr.).
In general terms: In western blotting, separated proteins are transferred to a membrane and probed.

Assay [3] has as its system ERK phosphorylation at T202/Y204. The assay can be described thus: Cell-based ERK1/2 (T202/Y204) phosphorylation ELISA in EOL-1 cells. Particulars: 3 hr or 15 hr treatment, read-out: EC50 phospho-ERK1/2 (T202/Y204). As to the method:
EOL-1 cells were cultured in RPMI-1640 medium with 10% fetal bovine serum (FBS) and 1% penicillin/streptomycin (Gibco BRL). Before the assay, EOL-1 cells were counted and seeded at 1×10^6 cells/well in a 6-well plate, cultured overnight in RPMI-1640 medium with 10% FBS. The cells were treated with certain compounds of Compounds 1-24 at 0˜3 μM for 3 hr. or 15 hr. at 37° C., then the cells were harvested, followed by 5 min. spin at 2000 rpm. After aspirating the supernatant, the cells were washed with cold PBS, span again, then 100 μL of RIPA lysis buffer (50 mM Tris-HCl, 1 mM EDTA, 1% NP-40, 0.5% sodium deoxycholate, and 0.1% SDS, pH 7.4, 150 mM NaCl, 1 mM Na3VO4) was added to the cell pellet to lyse the cells on ice for 30 min. After spin at 12,000 rpm for 5 min., 90 μL of the cell lysate was transferred to a fresh tube.
For an enzyme-linked immunosorbent assay (ELISA) assay, 10 μL of the lysate was used for p-ERK1/2 (T202/Y204) elisa assay. ELISA was done using the ERK 1/2 (pT202/Y204 +Total) ELISA Kit (Abcam, ab176660) according to the manufacturer's instructions. Specifically, add 50 μL of all samples or standards to appropriate wells. Add 50 μL of the Antibody Cocktail to each well. Seal the plate and incubate for 1 hr. at r.t. on a plate shaker set to 400 rpm. Wash each well with 3×350 μL 1× Wash Buffer PT. […] This is an endpoint reading.

The next assay deals with ITK (Homo sapiens (Human), UniProt Q08881). The assay can be described thus: 33P ATP HotSpot kinase assay, ITK. The class given is biochemical. Particulars: 10 μM ATP. As to the method: as §6
(§7) Each of Compound-1 to Compound-24 was measured for its inhibitory activity on TEC family kinases, BMX and ITK. The measurement was carried out in the same process as described above, BMX, ITK enzymes were used.

A further assay addresses BMX (Homo sapiens (Human), UniProt P51813). The assay can be described thus: 33P ATP HotSpot kinase assay, BMX. The class given is biochemical. Particulars: 10 μM ATP. As for the experimental part: as §6, §7
The next assay deals with ERK1 kinase (Homo sapiens (Human), UniProt P27361). The assay can be described thus: 33P ATP HotSpot kinase assay, ERK1. The class given is biochemical. As to conditions: 10 μM ATP. As to the method:
as §6
Certain compounds of Compound-1 to Compound-24 were measured for its inhibitory activity on ERK1 kinase. The measurement was carried out in the same process as described above, ERK enzyme was used.

Where “and” joins values, the source holds several entries; their conditions need not be identical. Equal entries are not always repeated. Some results are limits rather than exact numbers.

Chain of BMX (P51813 whole entry): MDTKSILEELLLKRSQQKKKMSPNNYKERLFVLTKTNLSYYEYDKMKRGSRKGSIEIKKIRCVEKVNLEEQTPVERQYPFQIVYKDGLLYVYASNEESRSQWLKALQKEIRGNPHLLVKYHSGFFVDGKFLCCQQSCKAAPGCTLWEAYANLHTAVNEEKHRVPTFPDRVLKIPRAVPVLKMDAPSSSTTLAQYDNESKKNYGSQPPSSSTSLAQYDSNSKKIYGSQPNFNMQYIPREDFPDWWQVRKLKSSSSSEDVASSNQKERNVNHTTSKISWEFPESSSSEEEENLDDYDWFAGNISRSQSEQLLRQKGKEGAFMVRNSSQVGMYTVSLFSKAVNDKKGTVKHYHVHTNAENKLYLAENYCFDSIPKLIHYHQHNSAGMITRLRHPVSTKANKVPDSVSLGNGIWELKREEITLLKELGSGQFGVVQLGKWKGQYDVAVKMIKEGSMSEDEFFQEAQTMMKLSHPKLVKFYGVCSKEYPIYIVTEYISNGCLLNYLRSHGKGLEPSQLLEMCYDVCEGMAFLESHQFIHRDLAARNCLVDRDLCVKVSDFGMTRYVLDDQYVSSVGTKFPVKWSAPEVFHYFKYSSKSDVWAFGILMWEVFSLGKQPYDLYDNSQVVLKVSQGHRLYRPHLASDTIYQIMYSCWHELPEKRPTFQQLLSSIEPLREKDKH
Chain of FAK (Q05397 whole entry): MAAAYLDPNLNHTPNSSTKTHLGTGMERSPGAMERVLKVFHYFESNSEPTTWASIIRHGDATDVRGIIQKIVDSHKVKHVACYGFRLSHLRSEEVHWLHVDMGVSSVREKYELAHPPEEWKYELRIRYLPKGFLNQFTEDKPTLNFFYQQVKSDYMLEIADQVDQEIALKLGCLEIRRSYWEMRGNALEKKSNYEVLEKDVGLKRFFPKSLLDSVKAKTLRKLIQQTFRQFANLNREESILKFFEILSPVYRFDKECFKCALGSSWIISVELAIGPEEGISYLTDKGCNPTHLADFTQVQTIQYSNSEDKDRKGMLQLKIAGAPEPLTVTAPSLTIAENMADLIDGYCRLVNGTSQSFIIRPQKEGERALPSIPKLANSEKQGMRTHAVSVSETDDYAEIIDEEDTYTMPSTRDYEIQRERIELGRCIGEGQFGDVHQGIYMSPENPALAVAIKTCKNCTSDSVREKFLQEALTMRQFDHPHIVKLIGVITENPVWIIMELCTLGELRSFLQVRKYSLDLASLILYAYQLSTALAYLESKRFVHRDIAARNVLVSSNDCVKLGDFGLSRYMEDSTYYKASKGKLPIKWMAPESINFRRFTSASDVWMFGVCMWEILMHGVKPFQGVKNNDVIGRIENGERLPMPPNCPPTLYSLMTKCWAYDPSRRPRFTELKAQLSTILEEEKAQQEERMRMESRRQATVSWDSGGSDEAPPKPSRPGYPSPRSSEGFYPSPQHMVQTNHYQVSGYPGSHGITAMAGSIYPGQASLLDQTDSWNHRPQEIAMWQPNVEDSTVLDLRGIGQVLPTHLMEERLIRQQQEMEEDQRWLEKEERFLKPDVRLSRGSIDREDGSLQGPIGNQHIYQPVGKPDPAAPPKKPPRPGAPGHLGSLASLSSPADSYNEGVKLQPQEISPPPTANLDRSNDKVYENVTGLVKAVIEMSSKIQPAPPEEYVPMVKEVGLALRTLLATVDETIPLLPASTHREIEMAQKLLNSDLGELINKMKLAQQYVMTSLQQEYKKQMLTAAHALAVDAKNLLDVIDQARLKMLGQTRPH
Chain of FAK phosphorylation at tyrosine 397 (Q05397 whole entry): as above
Chain of ITK (Q08881 whole entry): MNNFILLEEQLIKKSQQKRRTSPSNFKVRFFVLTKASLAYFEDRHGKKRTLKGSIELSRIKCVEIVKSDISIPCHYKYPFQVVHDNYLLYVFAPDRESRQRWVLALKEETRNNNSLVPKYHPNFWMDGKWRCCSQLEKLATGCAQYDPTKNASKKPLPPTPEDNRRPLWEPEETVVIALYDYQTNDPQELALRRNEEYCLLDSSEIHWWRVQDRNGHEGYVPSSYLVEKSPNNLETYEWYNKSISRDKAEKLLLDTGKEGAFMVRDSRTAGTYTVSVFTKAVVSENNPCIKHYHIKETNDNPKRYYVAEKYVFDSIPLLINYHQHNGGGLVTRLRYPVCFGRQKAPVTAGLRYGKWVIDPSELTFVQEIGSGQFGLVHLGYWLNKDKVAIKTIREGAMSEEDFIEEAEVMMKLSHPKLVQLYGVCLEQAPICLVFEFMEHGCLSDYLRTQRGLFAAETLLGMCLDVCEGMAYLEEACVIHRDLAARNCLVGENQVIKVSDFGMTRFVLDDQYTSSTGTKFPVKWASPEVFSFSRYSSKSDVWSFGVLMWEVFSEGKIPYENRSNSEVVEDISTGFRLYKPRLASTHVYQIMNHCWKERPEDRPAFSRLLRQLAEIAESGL
Chain of BTK wt (Q06187 whole entry): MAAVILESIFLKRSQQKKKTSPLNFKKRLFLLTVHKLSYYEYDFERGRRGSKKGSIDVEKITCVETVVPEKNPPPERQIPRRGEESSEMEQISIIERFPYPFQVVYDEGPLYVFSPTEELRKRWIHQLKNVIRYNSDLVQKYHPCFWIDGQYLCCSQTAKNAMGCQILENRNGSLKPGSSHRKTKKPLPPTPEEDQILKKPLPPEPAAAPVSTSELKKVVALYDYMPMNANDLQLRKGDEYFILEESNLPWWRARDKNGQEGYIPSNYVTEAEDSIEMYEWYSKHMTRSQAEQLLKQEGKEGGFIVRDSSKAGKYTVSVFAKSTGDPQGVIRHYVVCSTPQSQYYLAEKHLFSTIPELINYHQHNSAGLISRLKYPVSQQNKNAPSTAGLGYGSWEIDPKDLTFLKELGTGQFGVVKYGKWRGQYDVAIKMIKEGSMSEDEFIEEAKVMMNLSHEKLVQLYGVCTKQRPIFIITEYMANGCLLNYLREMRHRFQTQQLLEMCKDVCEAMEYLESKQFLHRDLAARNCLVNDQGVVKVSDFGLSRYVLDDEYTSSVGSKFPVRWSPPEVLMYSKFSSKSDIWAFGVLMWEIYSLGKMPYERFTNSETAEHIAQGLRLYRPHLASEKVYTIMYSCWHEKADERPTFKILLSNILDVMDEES
Chain of BTK phosphorylation at tyrosine 223 (Q06187 whole entry): as above
Chain of EGFR wt (P00533 25-1210): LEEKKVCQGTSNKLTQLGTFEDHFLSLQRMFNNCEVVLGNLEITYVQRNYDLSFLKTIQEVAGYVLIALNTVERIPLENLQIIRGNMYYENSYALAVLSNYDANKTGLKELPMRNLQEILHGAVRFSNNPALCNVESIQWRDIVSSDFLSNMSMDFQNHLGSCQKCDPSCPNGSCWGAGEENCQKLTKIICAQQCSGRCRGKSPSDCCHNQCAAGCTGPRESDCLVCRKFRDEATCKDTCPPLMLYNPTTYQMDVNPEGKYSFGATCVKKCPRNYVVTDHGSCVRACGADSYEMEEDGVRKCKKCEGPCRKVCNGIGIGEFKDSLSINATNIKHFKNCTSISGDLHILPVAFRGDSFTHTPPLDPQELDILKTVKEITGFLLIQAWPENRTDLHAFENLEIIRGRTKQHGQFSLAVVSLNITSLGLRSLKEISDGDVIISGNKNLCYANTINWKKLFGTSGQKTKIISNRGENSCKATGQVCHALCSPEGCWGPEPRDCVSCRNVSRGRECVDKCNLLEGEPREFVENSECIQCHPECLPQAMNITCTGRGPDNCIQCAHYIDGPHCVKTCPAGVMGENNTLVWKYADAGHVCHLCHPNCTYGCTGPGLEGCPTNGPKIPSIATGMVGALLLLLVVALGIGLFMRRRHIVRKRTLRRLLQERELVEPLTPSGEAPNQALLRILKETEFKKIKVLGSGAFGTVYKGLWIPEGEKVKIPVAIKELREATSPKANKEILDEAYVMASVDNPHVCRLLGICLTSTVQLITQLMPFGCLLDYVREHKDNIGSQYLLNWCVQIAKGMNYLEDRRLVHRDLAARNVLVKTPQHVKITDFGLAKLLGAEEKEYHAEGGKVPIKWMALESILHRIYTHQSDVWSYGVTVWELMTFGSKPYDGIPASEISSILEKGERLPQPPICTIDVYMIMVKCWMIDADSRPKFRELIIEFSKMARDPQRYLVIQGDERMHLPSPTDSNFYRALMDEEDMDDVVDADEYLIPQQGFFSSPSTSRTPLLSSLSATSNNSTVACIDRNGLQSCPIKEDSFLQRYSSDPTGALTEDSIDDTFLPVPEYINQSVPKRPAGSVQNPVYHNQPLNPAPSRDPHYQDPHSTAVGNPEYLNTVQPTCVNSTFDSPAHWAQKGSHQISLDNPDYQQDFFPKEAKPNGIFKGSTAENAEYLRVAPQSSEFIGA
Chain of ERK1 kinase (P27361 whole entry): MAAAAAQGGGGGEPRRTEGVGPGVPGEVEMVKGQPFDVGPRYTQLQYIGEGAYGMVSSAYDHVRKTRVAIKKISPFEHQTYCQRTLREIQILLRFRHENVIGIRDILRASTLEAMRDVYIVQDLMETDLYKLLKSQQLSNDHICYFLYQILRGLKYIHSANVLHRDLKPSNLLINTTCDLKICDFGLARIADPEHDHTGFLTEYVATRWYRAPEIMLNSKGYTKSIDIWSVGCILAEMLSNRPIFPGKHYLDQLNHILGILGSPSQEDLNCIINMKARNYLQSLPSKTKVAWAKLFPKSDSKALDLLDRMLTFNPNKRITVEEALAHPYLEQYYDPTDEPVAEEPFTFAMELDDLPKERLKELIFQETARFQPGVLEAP
Procedure for EGFR wt: Then, Kinase assays were performed using the “HotSpot” assay platform.
Briefly, specific kinase/substrate pairs along with required cofactors were prepared in reaction buffer; 20 mM Hepes pH 7.5, 10 mM MgCl2, 1 mM EGTA, 0.02% Brij35, 0.02 mg/ml BSA, 0.1 mM Na3VO4, 2 mM DTT, 1% DMSO. Compounds were delivered into the reaction, followed about 20 minutes later by addition of a mixture of ATP (Sigma, St. Louis Mo.) and ^33P ATP (Perkin Elmer, Waltham Mass.) to a final concentration of 10 μM.
Reactions were carried out at room temperature for 120 min, followed by spotting of the reactions onto P81 ion exchange filter paper (Whatman Inc., Piscataway, N.J.). Unbound phosphate was removed by extensive washing of filters in 0.75% phosphoric acid. […] IC50 values and curve fits were obtained using Prism (GraphPad Software).

In the case of `CN(c1cnccc1CNc1nc(Nc2ccc3c(c2)OCCOCCOCCO3)nc2[nH]ccc12)S(C)(=O)=O` [Compound-20, N-methyl-N-[4-[[[2-(2,5,8,11-tetraoxabicyclo[10.4.0]hexadeca-1(16),12,14-trien-14-ylamino)-7H-pyrrolo[2,3-d]pyrimidin-4-yl]amino]methyl]-3-pyridyl]methanesulfonamide], the IC50 in the assay with MDA-MB-231 cells was more than 3000 nM; on FAK, 29.4 nM; against BTK wt, more than 1000 nM; against EGFR wt it was more than 1000 nM; in the assay on EOL-1 cells, 2250 nM. Moreover, the EC50 in assay [1] was in the range of 100 to 1000 nM.
Turning to `CN([C@@H]1CCC[C@H]1Oc1nc(Nc2ccc3c(c2)OCCOCCOCCO3)nc2[nH]ncc12)S(C)(=O)=O` [Compound-19, N-methyl-N-[(1R,2R)-2-[[6-(2,5,8,11-tetraoxabicyclo[10.4.0]hexadeca-1(16),12,14-trien-14-ylamino)-1H-pyrazolo[3,4-d]pyrimidin-4-yl]oxy]cyclopentyl]methanesulfonamide], the concentration for half-maximal inhibition (IC50) with MDA-MB-231 cells is 2500 nM; at FAK it was 13.4 nM; at BTK wt it was 68.2 nM; against EGFR wt, more than 1000 nM; in the assay with EOL-1 cells, 350 nM. Besides, the EC50 in assay [1] was in the range of 100 to 1000 nM.
For the compound `CCC(=O)Nc1ccccc1Nc1nc(Nc2ccc3c(c2)OCCOCCOCCO3)nc2[nH]cnc12` [Compound-12, N-[2-[[2-(2,5,8,11-tetraoxabicyclo[10.4.0]hexadeca-1(12),13,15-trien-14-ylamino)-9H-purin-6-yl]amino]phenyl]propanamide], the IC50 with MDA-MB-231 cells is more than 3000 nM; at FAK, 24.6 nM; against BTK wt it was 4.36 nM; against EGFR wt, more than 1000 nM; in the assay on EOL-1 cells it was 2400 nM; against ITK, 447 nM. The results for the half-inhibitory concentration (IC50) against BMX and at ERK1 kinase were 2.7 nM and 714 nM, respectively. In addition, the EC50 fell in the range of 100 to 1000 nM in assay [2] and 1000 to 3000 nM in [3].
Consider `C=CC(=O)Nc1ccccc1Nc1nc(Nc2ccc3c(c2)OCCOCCOCCO3)nc2[nH]cnc12` [Compound-11, N-[2-[[2-(2,5,8,11-tetraoxabicyclo[10.4.0]hexadeca-1(12),13,15-trien-14-ylamino)-9H-purin-6-yl]amino]phenyl]prop-2-enamide], for which the IC50 in the assay on MDA-MB-231 cells was 300 nM; on FAK, 17.4 nM; against BTK wt it was 2.33 nM; against EGFR wt, 1900 nM and > 1000 nM; with EOL-1 cells, 25 nM; against ITK, 270 nM. The values for the IC50 against BMX and on ERK1 kinase were 1.21 nM and 6.23 nM, respectively. The EC50 is 100 to 1000 nM in assay [2], less than 100 nM in assay [3] and less than 100 nM in [1].
As to `C=CC(=O)N1CCC[C@@H](Nc2nc(Nc3ccc4c(c3)OCCOCCOCCO4)ncc2F)C1` [Compound-2, 1-[(3R)-3-[[5-fluoro-2-(2,5,8,11-tetraoxabicyclo[10.4.0]hexadeca-1(12),13,15-trien-14-ylamino)pyrimidin-4-yl]amino]-1-piperidyl]prop-2-en-1-one], the IC50 with MDA-MB-231 cells was more than 3000 nM; on FAK it was more than 1000 nM; against BTK wt it was 73.4 nM; at EGFR wt, more than 1000 nM; with EOL-1 cells, 2000 nM; against ITK, more than 1000 nM. This compound yielded an IC50 on BMX of 8.46 nM. Moreover, the EC50 in assay [2] is 100 to 1000 nM.
